Several values for one entry are separate records, joined by “and”; a condition that tells them apart may be missing. Equal values may be shown once.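 Five compound concentrations were applied to cells in 96-well plates for 48 hours; endpoints were derived by simple linear interpolation of the resulting dose-response curve. Here, GI50 denotes the concentration required for 50% inhibition of growth. TGI: total growth inhibition.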
How the values were obtained:
Assay in all cases: NCI tumour cell line growth inhibition, 48 h
OVCAR-8 ovarian = system: OVCAR-8 ovarian
MDA-MB-231 breast = system: MDA-MB-231 breast
SF-295 CNS = system: SF-295 CNS
HL-60(TB) leukemia = system: HL-60(TB) leukemia
SNB-19 CNS = system: SNB-19 CNS
HCT-15 colon = system: HCT-15 colon
ACHN renal = system: ACHN renal
SK-OV-3 ovarian = system: SK-OV-3 ovarian
NCI-H460 lung = system: NCI-H460 lung
K-562 leukemia = system: K-562 leukemia

Structure (SMILES) | GI50 (OVCAR-8 ovarian) | TGI (OVCAR-8 ovarian) | GI50 (MDA-MB-231 breast) | TGI (MDA-MB-231 breast) | GI50 (SF-295 CNS) | TGI (SF-295 CNS) | GI50 (HL-60(TB) leukemia) | TGI (HL-60(TB) leukemia) | GI50 (SNB-19 CNS) | TGI (SNB-19 CNS) | GI50 (HCT-15 colon) | TGI (HCT-15 colon) | GI50 (ACHN renal) | TGI (ACHN renal) | GI50 (SK-OV-3 ovarian) | TGI (SK-OV-3 ovarian) | GI50 (NCI-H460 lung) | TGI (NCI-H460 lung) | GI50 (K-562 leukemia) | TGI (K-562 leukemia)
Cc1ccc(F)c(NC(=O)Nc2ccc(-c3cccc4[nH]nc(N)c34)cc2)c1 | 3.25 µM and 3.08 µM | 18 µM and > 10 µM | 4.31 µM and 3.39 µM | 16.4 µM and > 10 µM | 2.55 µM and 3.48 µM | 12.3 µM and > 10 µM | 1.95 µM and 3.29 µM | 5.63 µM and > 10 µM | 3.79 µM and 3.96 µM | 15.8 µM and > 10 µM | 3.21 µM and 3.11 µM | 11.2 µM and > 10 µM | 3.14 µM and 2.85 µM | 11.4 µM and > 10 µM | 10.5 µM | 23.5 µM and > 10 µM | 2.42 µM and 2.76 µM | 5.94 µM and 8.32 µM | 3.66 µM and 2.28 µM | > 57.5 µM and 9.29 µM
Oc1cc(N2CC2)c(O)cc1N1CC1 | 1.25 µM | 9.44 µM | 10.3 µM | 64.2 µM | 0.377 µM | 5.32 µM | 0.238 µM | 2.14 µM | 1.78 µM | 13.5 µM | 0.727 µM | 10.4 µM | 0.219 µM | 0.59 µM | 1.54 µM | 8.77 µM | 0.21 µM | 5.15 µM | 1.2 µM | 15.4 µM
Cc1ccc([Se](=C(C(=O)c2ccccc2)C(=O)c2ccccc2)c2ccc(C)cc2)cc1 | – | > 100 µM | – | 35.2 µM | – | 66.5 µM | – | 54.2 µM | – | > 100 µM | – | 44.7 µM | – | 77.8 µM | – | > 100 µM | – | > 100 µM | – | 84.5 µM
COC(=O)C12CCC(C)(C)CC1C1=CCC3C4(C)CC(O)C(O)C(C)(C(=O)OC)C4CCC3(C)C1(CO)CC2 (configuration not stated) | – | 31.5 µM | – | 33.5 µM | – | 28.8 µM | – | > 100 µM | – | 37 µM | – | 29.1 µM | – | 27.2 µM | – | 31.3 µM | – | 31.5 µM | – | > 100 µM
O=C(/C=C/C12c3ccccc3C(c3ccccc31)C1C(=O)N(c3ccc(Cl)cc3)C(=O)C12)c1ccccn1 (configuration not stated) | 0.328 µM | > 100 µM | 0.318 µM | 2.23 µM | 0.379 µM | 2.03 µM | 0.24 µM | 1.35 µM | 0.426 µM | 2 µM | 0.206 µM | 0.66 µM | 0.234 µM | 0.56 µM | 1.98 µM | > 100 µM | 0.232 µM | 0.568 µM | 0.267 µM | > 100 µM
C/C(=N\NC(=S)N1CCN(c2ccccn2)CC1)c1ccccn1 | – | 20.4 µM | – | 18.5 µM | 0.0129 µM | 12.4 µM | 0.0416 µM | 0.0104 µM | 0.183 µM | 15 µM | – | 14.5 µM | 0.00217 µM | 8.52 µM | 0.198 µM | 16.2 µM | 0.0102 µM | 12.9 µM | – | 0.0341 µM
N#CC1C[C@@H]2CC3(CCC2CN1C(=O)c1ccccc1)OCCO3 (some centres not stated) | – | > 100 µM | > 100 µM | > 100 µM | – | > 100 µM | – | > 100 µM | – | > 100 µM | – | > 100 µM | – | > 100 µM | – | > 100 µM | – | > 100 µM | – | > 100 µM
N#CC(C#N)=NNc1ccc2cn[nH]c2c1 | – | > 100 µM | – | > 100 µM | – | > 100 µM | – | 45.3 µM | – | > 100 µM | – | > 100 µM | – | > 100 µM | – | > 100 µM | – | > 100 µM | – | > 100 µM
Cc1ccc(C)c2c1C(=O)N(c1ccc(F)cc1F)C2=O | > 100 µM | > 100 µM | 22.9 µM | > 100 µM | > 100 µM | > 100 µM | > 100 µM | > 100 µM | > 100 µM | > 100 µM | > 100 µM | > 100 µM | > 100 µM | > 100 µM | > 100 µM | > 100 µM | > 100 µM | > 100 µM | > 100 µM | > 100 µM
C[C@@H](N)COc1ccc(-c2cnc3ccc(N[C@H](C)c4cccc(F)c4)nn23)cc1 | 1.84 µM | 4.3 µM | 1.48 µM | 3.19 µM | 1.8 µM | 4.01 µM | 1.81 µM | 3.74 µM | 3 µM | 11.6 µM | 2.32 µM | 10.1 µM | 2.15 µM | 6.35 µM | 5.05 µM | 16.9 µM | 1.75 µM | 3.88 µM | 1.95 µM | 6.96 µM
CS(=O)(=O)N1CCC(n2c(=O)c(Oc3ccc(F)cc3F)cc3cnc(NC4CCOCC4)nc32)CC1 | > 25 µM | > 25 µM | > 25 µM | > 25 µM | > 25 µM | > 25 µM | > 25 µM | > 25 µM | > 25 µM | > 25 µM | > 25 µM | > 25 µM | > 25 µM | > 25 µM | > 17.5 µM | > 25 µM | > 25 µM | > 25 µM | > 25 µM | > 25 µM
COc1ccc(-c2cc(/C=C3\C(=O)Nc4cc(Cl)ccc43)[nH]n2)cc1 | 4.55 µM | 98.6 µM | 4.09 µM | > 100 µM | 2.68 µM | 12.2 µM | 2.26 µM | 6.33 µM | 4.65 µM | > 100 µM | 2.53 µM | > 100 µM | 5.49 µM | > 100 µM | 4.23 µM | > 100 µM | 3.43 µM | 23.1 µM | 1.56 µM | 32.3 µM
Cc1ccc([P+](Cc2ccccc2)(c2ccccc2)c2ccccc2)cc1 | 1.74 µM | 11.3 µM | 2.17 µM | 19.2 µM | 2.36 µM | 7.69 µM | 1.14 µM | 3.69 µM | 2.81 µM | > 100 µM | 19.5 µM | > 100 µM | 3.95 µM | > 100 µM | 4.1 µM | > 100 µM | 2.33 µM | 10.5 µM | 1.26 µM | > 100 µM
O=C(CN1CCN(Cc2ccccc2Cl)CC1)NC1CC(=O)c2c(Br)sc(Br)c21 (configuration not stated) | 24.8 µM | 54.8 µM | 21.1 µM | 39.8 µM | 25.6 µM | 57.6 µM | 23.3 µM | 57.4 µM | 18.6 µM | 33.1 µM | 18 µM | 34.1 µM | 35.1 µM | > 100 µM | 54.1 µM | > 100 µM | 18.3 µM | 35.2 µM | 29.6 µM | > 100 µM
N#Cc1c(NCc2ccccc2)nc(NCc2ccccc2)c(C#N)c1-c1ccc(Cl)cc1 | > 50 µM and 45.7 µM | > 100 µM | > 50 µM and 31.9 µM | > 100 µM | > 50 µM and 36 µM | > 100 µM | > 50 µM | > 50 µM | > 50 µM and 40.9 µM | > 100 µM | > 100 µM | > 100 µM | > 50 µM and 43.4 µM | > 100 µM | > 100 µM | > 100 µM | > 50 µM and 34.4 µM | > 100 µM | > 50 µM | > 50 µM
NC(=O)c1cccc2c(N[C@H](CN3CCC3)c3ccc(Cl)c(C(F)(F)F)c3)ncnc12 | 4.55 µM | 19.2 µM | 2.44 µM | 13.7 µM | 0.293 µM | 2.88 µM | 2.13 µM | 5.64 µM | 1.19 µM | 11.4 µM | 0.947 µM | 10.7 µM | 1.38 µM | 13.5 µM | 0.493 µM | 4.3 µM | 0.739 µM | 12.4 µM | 2.53 µM | 10.8 µM
COC(=O)C1=COC2OC3C(C(C)O)C(=O)OC34C=CC1C24 (configuration not stated) | – | 47.2 µM | – | > 100 µM | – | > 100 µM | – | 39.7 µM | – | > 100 µM | – | > 100 µM | – | > 100 µM | – | > 100 µM | – | > 100 µM | – | > 100 µM
N#CC(C#N)=CNCCN1CCN(C=C(C#N)C#N)CC1 | – | > 100 µM | – | > 100 µM | – | > 100 µM | – | > 100 µM | – | > 100 µM | – | > 100 µM | – | > 100 µM | – | > 100 µM | – | > 100 µM | – | > 100 µM
O=C(O)CCCCn1ccc(=O)[nH]c1=O | – | > 100 µM | – | > 100 µM | – | > 100 µM | – | > 100 µM | – | > 100 µM | – | > 100 µM | – | > 100 µM | – | > 100 µM | – | > 100 µM | – | > 100 µM
CNS(=O)(=O)OCC1OC(n2cnc3cncnc32)C(O)C1O (configuration not stated) | > 100 µM | > 100 µM | > 100 µM | > 100 µM | > 100 µM | > 100 µM | > 100 µM | > 100 µM | > 100 µM | > 100 µM | > 100 µM | > 100 µM | > 100 µM | > 100 µM | > 100 µM | > 100 µM | > 100 µM | > 100 µM | > 100 µM | > 100 µM
Oc1c(C(Nc2ccccn2)c2cccc(Oc3ccccc3)c2)ccc2cccnc12 (configuration not stated) | 0.424 µM | 19.7 µM | 0.617 µM | 19.5 µM | 0.392 µM | 13.3 µM | 0.432 µM | 37 µM | 0.366 µM | 14.7 µM | 0.331 µM | > 100 µM | 0.41 µM | 7.2 µM | 0.836 µM | 15.6 µM | 0.365 µM | 10.5 µM | 0.374 µM | > 100 µM
CC1CCCC(C(=O)CC2CC(=O)NC(=O)C2)C1=O (configuration not stated) | – | > 100 µM | – | > 100 µM | – | > 100 µM | – | > 100 µM | – | > 100 µM | – | > 100 µM | – | > 100 µM | – | > 100 µM | – | > 100 µM | – | > 100 µM
